Measurements: patent US10392357B2, “Glucagon-like peptide 1 modulator and uses thereof” (Academia Sinica, priority 2015, dated 2019)

How the values were obtained:
Format in all cases: cell-based
GLP-1R = biological target: T1, GLP-1R (UniProt P01275+P32301); experiment: cell-based; design: Activity % of compound 1 (potentiation of GLP-1 induced cAMP production): concentration or dose not given beside the values; conditions: for Activity % of compound 1 (potentiation of GLP-1 induced cAMP production): relative to compound 1 = 100; for effect on GLP-1R signaling (GLP-1 induced cAMP production): FIG. 1A to 1E
T1 construct: endogenous in cells; host or cells: RINm5F cells stably expressing the RG-cAMP BRET sensor
T1 sequence (P32301 22-463): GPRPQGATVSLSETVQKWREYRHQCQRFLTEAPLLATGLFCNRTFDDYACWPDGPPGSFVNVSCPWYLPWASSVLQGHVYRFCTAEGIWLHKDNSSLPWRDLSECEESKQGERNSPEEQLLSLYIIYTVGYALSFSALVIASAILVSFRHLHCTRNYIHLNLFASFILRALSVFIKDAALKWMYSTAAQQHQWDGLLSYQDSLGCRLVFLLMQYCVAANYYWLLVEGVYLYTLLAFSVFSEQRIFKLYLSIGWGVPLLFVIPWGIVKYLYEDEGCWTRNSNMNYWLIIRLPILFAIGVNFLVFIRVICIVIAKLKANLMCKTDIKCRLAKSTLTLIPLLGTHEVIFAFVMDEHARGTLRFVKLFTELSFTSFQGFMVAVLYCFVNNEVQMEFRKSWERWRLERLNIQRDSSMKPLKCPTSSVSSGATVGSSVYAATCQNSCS
T1 sequence (P01275 98-127 limits assumed): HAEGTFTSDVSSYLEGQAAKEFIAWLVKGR
Procedure: Next day, cells were washed twice with 0.1 ml phenol red-free MEM containing 5 mM HEPES, and incubated in the same medium for 1 h. The medium was replaced with 90 μL the same medium containing 1 mg/ml BSA and 5 μM DeepBlueC. The whole plate was immediately loaded onto a SpectraMax Paradigm Detection Platform equipped with a Dual-Color luminescence detection cartridge and SoftMax Pro 6.2.2 (Molecular Devices, Sunnyvale, Calif.) to obtain the background BRET signal based on the sequential integration of the luminescence detected at 370-450 and 500-530 nm over 60-150 s. Each well was then stimulated by adding 10 μl of 10× solutions of peptide and lipids and 1 mg/ml BSA in phenol red-free MEM containing 5 mM HEPES, and BRET signals were obtained immediately under identical settings. The BRET ratio is the ratio of light emitted between 90 and 300 s at 500-530 nm to that emitted at 370-450 nm. […] The dose-response curve, maximal response, and concentration of peptide needed to yield half-maximal response (EC50) were obtained by nonlinear regression to fit the data to the agonist versus response equation using Prism software 5.0 (GraphPad, San Diego). Unless specified, all cAMP response data are the means±S.E. from three independent experiments with triplicate assays.

H460 cells = experiment: Cell viability test (PrestoBlue) in H460 cells; conditions: 72-h treatment, FIG. 5; for cytotoxicity: test concentration 0.78 to 100 μM
Procedure: Cytotoxicity of H460 cells to various compounds was assessed using PrestoBlue® reagent, which was modified by the reducing environment of the viable cell and turns from blue to red in color. In brief, 3,000 H460 cells were seeded with 0.1 ml of RPMI 1640 medium in each well of a 96-well plate and incubated at 37° C. for 24 h before compound treatment. After a 72-h compound treatment, PrestoBlue™ cell viability reagent (Invitrogen) was added to each well according to the manufacturer's protocol. The plates were further incubated in the dark at 37° C. in 5% CO2 for 10 min, and absorbance of all wells was read at both the 570- and 600-nm wavelengths using automatic enzyme-linked immunosorbent assay plate reader (Molecular Devices, Union City, Calif.). The raw data were normalized and corrected according to the manufacturer's protocol. All samples were tested in triplicate, and each test was repeated three times. Cell viability was calculated using the following formula: percent of 100×(average corrected values of compound treated cells)/(average corrected values of untreated cells).

RINm5F cells = experiment: GLP-1-elicited insulin release from RINm5F cells; conditions: FIG. 4
GLP-1R-V2R chimeric = biological target: T2, GLP-1R-V2R chimeric (Homo sapiens, UniProt P01275+P43220); experiment: Receptor endocytosis assay in U2OS cells co-expressing GLP-1R-V2R and β-arrestin2:GFP
T2 construct: the first 440 amino acids of the GLP-1R (Met-1 to Thr-440); vasopressin V2 receptor C-terminal tail, last 29 amino acids, Ala-343 to Ser-371 (AVPR2); expressed in transfected cells; host or cells: U2OS osteosarcoma cells stably expressing beta-arrestin2:GFP (Norak Biosciences), transfected with pcDNA3-GLP-1R-V2R
T2 sequence (P43220 with tags, fused parts or gaps limits assumed): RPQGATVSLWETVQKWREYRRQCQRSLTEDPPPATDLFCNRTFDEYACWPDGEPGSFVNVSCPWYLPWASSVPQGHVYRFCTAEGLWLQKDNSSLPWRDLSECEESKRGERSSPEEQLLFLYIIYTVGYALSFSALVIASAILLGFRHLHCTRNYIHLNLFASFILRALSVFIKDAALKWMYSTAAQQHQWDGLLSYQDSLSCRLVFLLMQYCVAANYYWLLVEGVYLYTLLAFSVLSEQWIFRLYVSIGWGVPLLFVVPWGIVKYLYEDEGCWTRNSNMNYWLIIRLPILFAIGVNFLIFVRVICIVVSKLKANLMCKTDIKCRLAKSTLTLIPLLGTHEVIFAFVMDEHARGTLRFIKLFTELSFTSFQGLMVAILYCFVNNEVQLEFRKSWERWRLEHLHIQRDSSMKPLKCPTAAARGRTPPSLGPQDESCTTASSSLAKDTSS
T2 sequence (P01275 98-127 limits assumed, stated change not applied): as the sequence (P01275 98-127 limits assumed) above
Description: U2OS osteosarcoma cell line stably expressing a β-arrestin2:GFP fusion protein was obtained from Norak Biosciences. The pcDNA3 GLP-1R-V2R chimeric construct contains the first 440 amino acids of the GLP-1R (Met-1 to Thr-440) fused to the last 29 amino acids of the vasopressin V2 receptor (Ala-343 to Ser-371) and separated by two alanine residues as linker. […]
Images were acquired on an XL model of the ImageXpress® Micro System (Molecular Devices, Sunnyvale, Calif.) and analyzed with MetaXpress High-Content Image Acquisition and Analysis Software (Molecular Devices, Sunnyvale, Calif.) using the granularity and variable grain analysis modules. […] The number of spots, total area covered by spots, average and integrated fluorescence intensity of the spots, and nuclear area and fluorescence intensity were logged into the database. Data from abnormal cells for which the values were above threshold (abnormal: average nuclear staining intensity <500; integrated fluorescence intensity of area covered by spots <150) were ruled out using Acuity Xpress, followed by selection of the measurement method, spot fluorescence integrated intensity to calculate the average number of spots per nucleus. […]

Row | Compound | Activity % of compound 1 (potentiation of GLP-1 induced cAMP production) (GLP-1R) | further results
1 | CCCCC/C=C/C/C=C/CCCCCCCC(=O)OCC(O)CO (stereo not shown) [1-monolinolein] | 80% | 
2 | CCCCCCCC/C=C\CCCCCCCC(=O)OC(CO)CO [2-oleoylglycerol] |  | cytotoxicity (H460 cells): did not exhibit detectable cytotoxicity
3 | C[C@@H]([C@H](C)O)[C@H](N)C(=O)O [4-hydroxyisoleucine] | <10% | 
4 | CCCCCC/C=C/C=C/CCCCCCCC(=O)O [9(E),11(E)-conjugated linoleic acid] | 30% | 
5 | CCCCCC/C=C/C=C\CCCCCCCC(=O)O [9(Z),11(E)-conjugated linoleic acid] | 25% | 
6 | CCCCC/C=C\C=C\CCCCCCCCC(=O)O [10(E),12(Z)-conjugated linoleic acid] | 30% | 
7 | CCCCCC/C=C/CCCCCCCCCC(=O)O [11-trans-octadecenoic acid] | 10% | 
8 | CCCCC/C=C\C/C=C\CCCCCCCC(=O)NC1C(=O)OC(C)C1C (stereo not shown) [Compound 1, (9Z,12Z)-N-(4,5-Dimethyl-2-oxotetrahydrofuran-3-yl)octadeca-9,12-dienamide] | 100% | effect on insulin release elicited by GLP-1 (RINm5F cells; 7.7 μM compound added to 2 nM GLP-1): significantly enhanced; insulin release by compound alone (RINm5F cells; compound alone, without GLP-1): did not trigger any insulin release; cytotoxicity (H460 cells): did not exhibit detectable cytotoxicity; EC50 (GLP-1R-V2R chimeric): 0.87 µM; relative potency among the compounds of formula (I) tested in example 2 (GLP-1R; RINm5F cells): most potency; effect on GLP-1R signaling (GLP-1 induced cAMP production) (GLP-1R; RINm5F cells): enhance the GLP-1R signaling; shift of the GLP-1 dose-response curve (cAMP production) to the left (GLP-1R; compound 1 increased from 0.8 μM to 26 μM, FIG. 2 panel A): > 10 fold; EC50 (GLP-1R; dose dependent and saturable, FIG. 2 panel B): 3.7 µM
9 | CCC=CCC=CCC=CCC=CCC=CCC=CCCC(=O)N[C@H]1C(=O)O[C@@H](C)[C@@H]1C [Compound 12] |  | effect on GLP-1R signaling (GLP-1 induced cAMP production) (GLP-1R; RINm5F cells): enhance the GLP-1R signaling
10 | CC/C=C\C/C=C\C/C=C\C/C=C\C/C=C\C/C=C\CCC(=O)O [Docosahexaenoic acid] | 60% | 
11 | CC/C=C\C/C=C\C/C=C\C/C=C\C/C=C\C/C=C\CCC(=O)NCCO [Docosahexaenoyl ethanolamide] | 20% | 
12 | CC/C=C/C/C=C/C/C=C/C/C=C/C/C=C/C/C=C/CCC(=O)NCC(=O)O [Docosahexaenoyl glycine] | 15% | 
13 | CC/C=C\C/C=C\C/C=C\C/C=C\C/C=C\C/C=C\CCC(=O)NCCc1c[nH]c2ccc(O)cc12 [Docosahexaenoyl serotonin] | 15% | 
14 | CC/C=C\C/C=C\C/C=C\C/C=C\C/C=C\CCCC(=O)O [Eicosapentaenoic acid] | 60% | 
15 | CC/C=C\C/C=C\C/C=C\C/C=C\C/C=C\CCCC(=O)NCCO [Eicosapentaenoyl ethanolamide] | 90% | Activity % of compound 1 (potentiation of GLP-1 induced cAMP production) (GLP-1R; listed as eicosanpentaenoyl ethanolamide): about 90%
16 | CC/C=C\C/C=C\C/C=C\C/C=C\C/C=C\CCCC(=O)NCCc1c[nH]c2ccc(O)cc12 [Eicosapentaenoyl serotonin] | 20% | 
17 | CCCCC/C=C\C/C=C\CCCCCCCC(=O)OCC [Ethyl linoleate] | 60% | 

Row | Compound | Activity % of compound 1 (potentiation of GLP-1 induced cAMP production) (GLP-1R) | further results
18 | CCCCC/C=C/C/C=C/CCCCCCCC(=O)O [Linoelaidic acid] | 30% | 
19 | CCCCC/C=C\C/C=C\CCCCCCCC(=O)NCCO [Linoleoyl ethanolamide] | 90% | Activity % of compound 1 (potentiation of GLP-1 induced cAMP production) (GLP-1R; listed as linoleoyl ethanolamide): about 90%
20 | CCCCC/C=C\C/C=C\CCCCCCCC(=O)NCC(=O)O [Linoleoyl glycine] | 80% | 
21 | CCCCC/C=C\C/C=C\CCCCCCCC(=O)OC [Methyl cis,cis-9,12-octadecadienoate] | 15% | 
22 | CCCCC/C=C/C/C=C/CCCCCCCC(=O)OC [Methyl linolelaidate] | 30% | 
23 | CCCCC/C=C\C/C=C\C/C=C\CCCCC(=O)OC [Methyl γ-linolenate] | 20% | 
24 | CC/C=C\C/C=C\C/C=C\CCCCCCCC(=O)N[C@@H](Cc1ccc(O)cc1)C(=O)O [N-(α-linolenoyl) tyrosine] | 70% | 
25 | CCCCCCCC/C=C\CCCCCCCC(=O)O [Oleic acid] | 35% | 
26 | N.N.[Cl][Pt][Cl] [cisplatin] |  | IC50 (H460 cells): 6.7 µM
27 | CCCCC/C=C\C/C=C\CCCCCCCC(=O)OC [linoleic acid methyl ester] | 30% | 
28 | CC/C=C\C/C=C\C/C=C\CCCCCCCC(=O)OC [linolenic acid methyl ester] | 15% | 
29 | CCCCCCCC/C=C\CCCCCCCC(=O)NCCO [oleoylethanolamide] |  | cytotoxicity (H460 cells): did not exhibit detectable cytotoxicity
30 | CC/C=C\C/C=C\C/C=C\CCCCCCCC(=O)O [α-linolenic acid] | 15% | 
31 | CCCCC/C=C\C/C=C\C/C=C\CCCCC(=O)OC [γ-linoleic acid methyl ester] | 25% | 
32 | Cis-octadecenoic acid | 25% | 
33 | GLP-1(7-36)-amide |  | insulin release from RINm5F cells (RINm5F cells; 2 nM GLP-1 alone): stimulated a low level of insulin release
